Test results from patent publication US20120071475A1, “UREA DERIVATIVES HAVING PI3K-INHIBITING ACTIVITY” (SHIONOGI & CO., LTD., priority 2009, published 2012).

Experiments:
[1] = target: PI3Kγ (Homo sapiens, UniProt P48736); experiment: PI3Kγ inhibitory activity (PI3-kinase HTRF assay, inhibition ratio); type: biochemical; conditions: compound at 10 μmol/L; for inhibition at 10 µM: 0.5 h, read-out: PI3Kg Inhibition Ratio % (10 μM)
Protocol: For each compound synthesized in the above Examples, PI3Kγ inhibitory activity was measured.
The PI3Kγ inhibitory activity of a compound was evaluated using PI3-kinase HTRF™ assay (Millipore) according to the following procedure:
To each well of a testing plate, 5 μL of a compound solution containing 10% DMSO (40 μmol/L as the concentration of the compound), 5 μL of a substrate solution (40 μmol/L phosphatidylinositol (4,5)-bisphosphate, 20 mmol/L MgCl2, 10 mmol/L DTT), and 5 μL of an enzyme solution (80 μg/mL PI-3 kinase y, 10 mmol/L MgCl2, 5 mmol/L DTT) were added, and then allowed to stand for 10 minutes.
Then, 5 μL of a reaction solution (40 μmol/L ATP, 10 mmol/L MgCl2, 5 mmol/L DTT) was added thereto. After reacting for 30 minutes at room temperature, 5 μL of a solution containing EDTA and biotinylated phosphatidylinositol (3,4,5)-triphosphate was added to quench the reaction.
5 μL of a detection reagent containing a europium-labeled anti-GST antibody, the GST-tagged PH domain, and allophycocyanin-labeled streptavidin was added thereto. After 18 hours, HTRF (excitation wavelength: 330 nm, measured wavelengths: 620 nm and 665 nm) was measured.
HTRF ratio was defined as the value obtained by dividing the amount of fluorescence obtained at the measured wavelength 665 nm by the amount of fluorescence obtained at 620 nm. The HTRF ratio in the absence of a compound was defined as 100% activity and the HTRF ratio in the absence of PI-3 kinase y was defined as 0% activity to calculate an inhibition ratio, which was defined as the PI3Kγ inhibitory activity of a compound at 10 μmol/L.

[2] = Metabolic stability test (pooled human liver microsome); type: in vitro ADME; conditions: percentage of test compound remained after 30 minutes, pooled human liver microsome 0.5 mg protein/mL, 1 mmol/L NADPH, 37° C.; for hLMS_ox(at 0.5 μM) %: compound 0.5 μM
Protocol: After a subject compound was reacted for a certain time using a pooled human liver microsome commercially available, a reacted sample and an unreacted sample are compared to calculate a survival ratio, and then the degree of metabolism in the liver was evaluated.
0.2 mL of a buffer solution (50 mmol/L of Tris-HCl in pH 7.4, 150 mmol/L of potassium chloride, and 10 mmol/L of magnesium chloride) containing a human liver microsome of 0.5 mg protein/mL was reacted in the presence of 1 mmol/L NADPH at 37° C. for 0 or 30 minutes (oxidative reaction). After reacting, 50 μL of the reaction solution was added to 100 μL of a solution of methanol/acetonitrile (1/1 (v/v)), mixed, and then centrifuged at 3000 rpm for 15 minutes. The test compound in the supernatant was quantitated with LC/MS/MS. The amount of the compound at a reaction time of 0 minute was defined as 100% and, based on that, the percentage of the test compound remained after reacting for 30 minutes was calculated.

Chain of PI3Kγ (P48736 whole entry, species assumed): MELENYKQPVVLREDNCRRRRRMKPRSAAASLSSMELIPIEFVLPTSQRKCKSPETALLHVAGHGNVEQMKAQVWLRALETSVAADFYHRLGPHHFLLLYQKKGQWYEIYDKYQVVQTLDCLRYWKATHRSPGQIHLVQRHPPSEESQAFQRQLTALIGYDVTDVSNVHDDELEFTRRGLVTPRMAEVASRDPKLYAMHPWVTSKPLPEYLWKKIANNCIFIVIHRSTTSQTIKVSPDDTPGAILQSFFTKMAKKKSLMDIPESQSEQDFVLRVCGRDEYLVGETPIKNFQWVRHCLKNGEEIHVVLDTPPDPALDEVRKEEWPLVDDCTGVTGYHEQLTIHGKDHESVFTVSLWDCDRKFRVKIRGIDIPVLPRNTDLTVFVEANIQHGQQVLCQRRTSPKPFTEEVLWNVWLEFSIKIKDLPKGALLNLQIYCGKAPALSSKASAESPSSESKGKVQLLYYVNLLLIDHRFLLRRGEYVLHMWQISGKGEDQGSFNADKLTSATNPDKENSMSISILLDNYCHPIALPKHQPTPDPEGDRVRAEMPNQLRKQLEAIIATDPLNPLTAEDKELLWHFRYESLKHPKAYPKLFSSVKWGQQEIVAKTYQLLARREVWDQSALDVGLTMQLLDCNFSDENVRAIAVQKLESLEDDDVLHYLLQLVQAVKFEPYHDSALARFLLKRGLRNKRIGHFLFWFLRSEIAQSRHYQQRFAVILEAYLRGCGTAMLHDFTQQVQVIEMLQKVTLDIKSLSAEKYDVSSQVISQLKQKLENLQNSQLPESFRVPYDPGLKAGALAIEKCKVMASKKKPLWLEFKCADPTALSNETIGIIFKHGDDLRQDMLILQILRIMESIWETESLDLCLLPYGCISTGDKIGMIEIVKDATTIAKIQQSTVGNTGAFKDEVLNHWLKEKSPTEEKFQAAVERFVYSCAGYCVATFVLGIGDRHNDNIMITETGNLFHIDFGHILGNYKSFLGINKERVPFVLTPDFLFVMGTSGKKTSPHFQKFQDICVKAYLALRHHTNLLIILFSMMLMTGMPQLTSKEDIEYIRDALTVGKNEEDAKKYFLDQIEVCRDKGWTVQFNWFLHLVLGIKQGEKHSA

SMILES	inhibition at 10 µM [1]	other results
COC(=O)c1ccsc1NC(=O)Nc1nc2c(s1)CN(c1cc(OC)nc(OC)n1)CC2 [Compound I-1]	79%	
COC(=O)c1sccc1NC(=O)Nc1nc2c(s1)CN(c1cc(OC)nc(OC)n1)CC2 [Compound I-2]	69%	
COc1cc(N2CCc3nc(NC(=O)Nc4ccccc4C(=O)OC(C)(C)C)sc3C2)nc(OC)n1 [Compound I-3]	≥ 95%	hLMS_ox(at 2 μM) % ([2]; compound 2 μM): 82%
COC(=O)c1ccccc1NC(=O)Nc1nc2c(s1)CN(c1cc(OC)nc(OC)n1)CC2 [Compound I-6]	≥ 95%	
COc1cc(N2CCc3nc(NC(=O)Nc4ccccc4C(=O)N4CCCCC4)sc3C2)nc(OC)n1 [Compound I-8]	93%	
COc1cc(N2CCc3nc(NC(=O)Nc4ccccc4C(=O)N(C)C(C)(C)C)sc3C2)nc(OC)n1 [Compound I-11]	94%	
COc1cc(N2CCc3nc(NC(=O)Nc4ccccc4C(=O)NC(C)(C)CO)sc3C2)nc(OC)n1 [Compound I-15]	94%	
COC(=O)C(C)(C)NC(=O)c1ccccc1NC(=O)Nc1nc2c(s1)CN(c1cc(OC)nc(OC)n1)CC2 [Compound I-17]	≥ 95%	
COCC(C)NC(=O)c1ccccc1NC(=O)Nc1nc2c(s1)CN(c1cc(OC)nc(OC)n1)CC2 (stereo not drawn) [Compound I-18]	94%	
COC(=O)c1ccncc1NC(=O)Nc1nc2c(s1)CN(c1cc(OC)nc(OC)n1)CC2 [Compound I-21]	74%	
COc1cc(N2CCc3nc(NC(=O)Nc4ccccc4C(=O)NC(C)(C)C#N)sc3C2)nc(OC)n1 [Compound I-25]	≥ 95%	
COc1cc(N2CCc3nc(NC(=O)Nc4ccsc4C(=O)NC(C)(C)C)sc3C2)nc(OC)n1 [Compound I-26]	≥ 95%	
COc1cc(N2CCc3nc(NC(=O)Nc4ccc(F)cc4C(=O)NC(C)C)sc3C2)nc(OC)n1 [Compound I-32]	≥ 95%	
COc1cc(N2CCc3nc(NC(=O)Nc4ccccc4NC(=O)C(C)(C)C)sc3C2)nc(OC)n1 [Compound I-44]	≥ 95%	
COc1cc(N2CCc3nc(NC(=O)Nc4ccccc4OCC(C)C)sc3C2)nc(OC)n1 [Compound I-47]	≥ 95%	
COc1cc(N2CCc3nc(NC(=O)Nc4ccccc4C(=O)CCC(C)C)sc3C2)nc(OC)n1 [Compound I-66]	≥ 95%	
COc1cc(N2CCc3nc(NC(=O)Nc4ccccc4CC(C)C)sc3C2)nc(OC)n1 [Compound I-68]	≥ 95%	
COc1cc(N2CCc3nc(NC(=O)Nc4ccccc4C(=O)NCCO)sc3C2)nc(OC)n1 [Compound I-85]	≥ 95%	hLMS_ox(at 0.5 μM) % [2]: 90.2%
COc1cc(N2CCc3nc(NC(=O)Nc4ccccc4C(=O)NC(C)CO)sc3C2)nc(OC)n1 (stereo not drawn) [Compound I-87]	≥ 95%	hLMS_ox(at 0.5 μM) % [2]: 91.9%
COc1nccc(N2CCc3nc(NC(=O)Nc4ccccc4OCCC(C)C)sc3C2)n1 [Compound I-96]	≥ 95%	
O=C(Nc1nc2c(s1)CN(c1ccnc(Cl)n1)CC2)Nc1ccccc1C(=O)NCCO [Compound I-99]	≥ 95%	hLMS_ox(at 0.5 μM) % [2]: 90.6%
COc1cc(N2CCc3nc(NC(=O)Nc4ccccc4C(O)CC(C)C)sc3C2)nc(OC)n1 (stereo not drawn) [Compound I-116]	≥ 95%	

SMILES	inhibition at 10 µM [1]	other results
CC(CO)NC(=O)c1ccccc1NC(=O)Nc1nc2c(s1)CN(c1ccc(F)c(F)c1)CC2 (stereo not drawn) [Compound I-118]	≥ 95%	hLMS_ox(at 0.5 μM) % [2]: 89.8%
CC(CO)NC(=O)c1ccccc1NC(=O)Nc1nc2c(s1)CN(c1cc(F)cc(F)c1)CC2 (stereo not drawn) [Compound I-119]	≥ 95%	hLMS_ox(at 0.5 μM) % [2]: 90.8%
CC(CO)NC(=O)c1ccccc1NC(=O)Nc1nc2c(s1)CN(c1ccnc(F)c1)CC2 (stereo not drawn) [Compound I-122]	≥ 95%	hLMS_ox(at 0.5 μM) % [2]: 90.6%
COc1cc(N2CCc3nc(NC(=O)N[C@@H]4C[C@H]4C(=O)NC(C)C)sc3C2)nc(OC)n1 [Compound I-130]		hLMS_ox(at 0.5 μM) % [2]: 104%
CC(C)NC(=O)c1nn(C)cc1NC(=O)Nc1nc2c(s1)CN(c1cncc(C(F)(F)F)c1)CC2 [Compound I-132]	85%	
Cc1cc(N2CCc3nc(NC(=O)Nc4cn(C)nc4C(=O)NC(C)C)sc3C2)nc(Cl)n1 [Compound I-164]	93%	
COc1cc(N2CCc3nc(NC(=O)Nc4ccccc4S(=O)(=O)NC(C)C)sc3C2)nc(OC)n1 [Compound I-171]	85%	
COc1cc(N2CCc3nc(NC(=O)Nc4ccccc4O)sc3C2)nc(OC)n1 [Compound I-177]	88%	
Cc1cc(N2CCc3nc(NC(=O)Nc4ccccc4C(=O)NC(C)C)sc3C2)nc(C#N)n1 [Compound I-181]	79%	hLMS_ox(at 0.5 μM) % [2]: 85.9%
CC(C)NC(=O)c1nn(C)cc1NC(=O)Nc1nc2c(s1)CN(c1cc[nH]c(=O)c1)CC2 [Compound I-184]	75%	hLMS_ox(at 0.5 μM) % [2]: 98.1%
COc1cc(N2CCc3nc(NC(=O)Nc4ccccc4C(=O)NN(C)C)sc3C2)nc(OC)n1 [Compound I-194]		PI3Kg Inhibition Ratio % (10 μM) [1]: 92%
CO/N=C(\C)c1ccccc1NC(=O)Nc1nc2c(s1)CN(c1cc(OC)nc(OC)n1)CC2 [Compound I-196]	83%	
COc1cc(N2CCc3nc(NC(=O)Nc4cccc5c4C(=O)N(C(C)C)C5)sc3C2)nc(OC)n1 [Compound I-201]	78%	
C[C@@H](CO)NC(=O)c1ccccc1NC(=O)Nc1nc2c(s1)CN(c1ccc(C(F)(F)F)cc1)CC2 [Compound I-206]	87%	
C[C@H](CO)NC(=O)c1ccccc1NC(=O)Nc1nc2c(s1)CN(c1ccc(C(F)(F)F)cc1)CC2 [Compound I-207]	93%	hLMS_ox(at 0.5 μM) % [2]: 93.5%
CC(=O)c1cccc(-c2ccc3nc(NC(=O)Nc4ccccc4OCCC(C)C)sc3c2)c1 [Compound I-214]	≥ 95%	
COc1ccc(-c2ccc3nc(NC(=O)Nc4ccccc4OCCC(C)C)sc3c2)cn1 [Compound I-215]	≥ 95%	
CC(=O)c1cccc(-c2ccc3nc(NC(=O)Nc4ccccc4OCCC(C)C)nn3c2)c1 [Compound I-217]	88%	
COc1ccc(-c2ccc3nc(NC(=O)Nc4ccccc4OCCC(C)C)nn3c2)cn1 [Compound I-218]	90%	
COc1ccc(-c2ccc3nc(NC(=O)Nc4ccccc4OCCC(C)C)sc3n2)cn1 [Compound I-220]	≥ 95%	
CC(=O)c1cccc(-c2cc(NC(=O)Nc3ccccc3OCCC(C)C)nn2C)c1 [Compound I-222]	≥ 95%	
COc1ccc(-c2cc(NC(=O)Nc3ccccc3C(=O)NC(C)C)nn2C)cn1 [Compound I-228]	88%	
